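1) Cells in 96-well plates. 2) Compound, 48 h, 5 concentrations. 3) Linear interpolation between surrounding doses. 4) Unreached endpoint = highest concentration. GI50 = concentration required for 50% inhibition of growth.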 Active and inactive are the calls of the source. No stated cut-off is given here; in the data, active = GI50 up to about 1.1 µM and inactive = higher.
Key:
Test in all cases: inhibition of tumour cell growth, NCI panel, 48 h
HL-60 = system: HL-60
SN12C = system: SN12C
HOP-92 = system: HOP-92
UO-31 = system: UO-31
EKVX = system: EKVX
NCI-H460 = system: NCI-H460
SF-268 = system: SF-268
SR = system: SR
M14 = system: M14
K562 = system: K562
SNB-19 = system: SNB-19
HOP-62 = system: HOP-62
OVCAR-4 = system: OVCAR-4
RXF 393 = system: RXF 393
IGROV-1 = system: IGROV-1
OVCAR-3 = system: OVCAR-3
TK-10 = system: TK-10
HCT-15 = system: HCT-15
OVCAR-8 = system: OVCAR-8
786-0 = system: 786-0

SMILES	GI50 (HL-60)	GI50 (SN12C)	GI50 (HOP-92)	GI50 (UO-31)	GI50 (EKVX)	GI50 (NCI-H460)	GI50 (SF-268)	GI50 (SR)	GI50 (M14)	GI50 (K562)	GI50 (SNB-19)	GI50 (HOP-62)	GI50 (OVCAR-4)	GI50 (RXF 393)	GI50 (IGROV-1)	GI50 (OVCAR-3)	GI50 (TK-10)	GI50 (HCT-15) [µM]	GI50 (OVCAR-8)	GI50 (786-0)
CCC(C)C(=O)c1c(O)c(C/C=C(\C)CCC=C(C)C)c(O)c2c(C(O)CC)cc(=O)oc12 (centres undefined)	1.46 µM (inactive)	1.71 µM (inactive)	1.63 µM (inactive)	2.24 µM (inactive)	3.6 µM (inactive)	2.3 µM (inactive)	1.9 µM (inactive)	1.31 µM (inactive)	3.31 µM (inactive)	0.679 µM (active)	4.23 µM (inactive)	1.95 µM (inactive)	2.11 µM (inactive)	1.79 µM (inactive)	2.68 µM (inactive)	2.69 µM (inactive)	3.81 µM (inactive)	–	–	–
O=C(Nc1nc2c(=O)[nH]cnc2s1)c1ccccc1	53.8 µM (inactive)	> 100 µM (inactive)	49.1 µM (inactive)	97.9 µM (inactive)	> 100 µM (inactive)	41.5 µM (inactive)	> 100 µM (inactive)	0.315 µM (active)	–	62.5 µM (inactive)	> 100 µM (inactive)	> 100 µM (inactive)	> 100 µM (inactive)	55.7 µM (inactive)	71.8 µM (inactive)	> 100 µM (inactive)	68.9 µM (inactive)	> 100	> 100 µM (inactive)	> 100 µM (inactive)
Cc1nc2ccc(C(F)(F)F)cc2nc1Nc1ccc(Cl)c(Cl)c1	5.62 µM (inactive)	11.9 µM (inactive)	3.27 µM (inactive)	12.2 µM (inactive)	> 10 µM (inactive)	2.65 µM (inactive)	13.8 µM (inactive)	8.73 µM (inactive)	–	–	14.1 µM (inactive)	16 µM (inactive)	–	6.49 µM (inactive)	–	12.8 µM (inactive)	17.6 µM (inactive)	6.12	12.8 µM (inactive)	4.69 µM (inactive)
N#Cc1ccccc1C(Cl)(Cl)c1cnccn1	28.6 µM (inactive)	74.8 µM (inactive)	25.4 µM (inactive)	33.3 µM (inactive)	40 µM (inactive)	47.4 µM (inactive)	52.5 µM (inactive)	34 µM (inactive)	–	34.3 µM (inactive)	56.5 µM (inactive)	72.4 µM (inactive)	> 100 µM (inactive)	26.4 µM (inactive)	44.1 µM (inactive)	–	> 100 µM (inactive)	–	26.3 µM (inactive)	14.6 µM (inactive)
CSc1nc2c(c(=O)n1C)N=C(c1ccc(Cl)cc1)CC(c1ccccc1)N2 (centres undefined)	29 µM (inactive)	18.7 µM (inactive)	33.8 µM (inactive)	24.5 µM (inactive)	20.9 µM (inactive)	–	–	29.9 µM (inactive)	17.5 µM (inactive)	20.7 µM (inactive)	36.3 µM (inactive)	27.6 µM (inactive)	6.84 µM (inactive)	39.4 µM (inactive)	18.3 µM (inactive)	33.7 µM (inactive)	–	–	27.8 µM (inactive)	31 µM (inactive)
C[C@]12CC[C@H](OC(=O)Cc3ccc(N(CCCl)CCCl)cc3)CC1=CC[C@@H]1[C@@H]2CC[C@]2(C)C(=O)CC[C@@H]12	> 100 µM (inactive)	> 100 µM (inactive)	> 100 µM (inactive)	> 100 µM (inactive)	> 100 µM (inactive)	> 100 µM (inactive)	> 100 µM (inactive)	3.61 µM (inactive)	> 100 µM (inactive)	> 100 µM (inactive)	> 100 µM (inactive)	> 100 µM (inactive)	–	> 100 µM (inactive)	> 100 µM (inactive)	> 100 µM (inactive)	> 100 µM (inactive)	> 100	> 100 µM (inactive)	–
Cc1cc(O)nc(NNC(C#N)c2ccc(O)cc2)n1 (centres undefined)	> 100 µM (inactive)	> 100 µM (inactive)	> 100 µM (inactive)	> 100 µM (inactive)	–	> 100 µM (inactive)	> 100 µM (inactive)	> 100 µM (inactive)	> 100 µM (inactive)	> 100 µM (inactive)	–	> 100 µM (inactive)	> 100 µM (inactive)	> 100 µM (inactive)	> 100 µM (inactive)	> 100 µM (inactive)	> 100 µM (inactive)	> 100	> 100 µM (inactive)	> 100 µM (inactive)
O=C(/C=C/c1ccccc1)Oc1cccc(O)c1	16.9 µM (inactive)	44.1 µM (inactive)	> 100 µM (inactive)	> 100 µM (inactive)	–	> 100 µM (inactive)	15.5 µM (inactive)	18.2 µM (inactive)	43.1 µM (inactive)	–	20.2 µM (inactive)	53.6 µM (inactive)	36.3 µM (inactive)	> 100 µM (inactive)	17.3 µM (inactive)	73.8 µM (inactive)	> 100 µM (inactive)	16.6	44.3 µM (inactive)	77.8 µM (inactive)
CCCCCCOP(=O)(OCCCCCC)C(NC(=O)OCC)(C(F)(F)F)C(F)(F)F	> 100 µM (inactive)	34 µM (inactive)	28.4 µM (inactive)	28.6 µM (inactive)	64.6 µM (inactive)	30.3 µM (inactive)	40.6 µM (inactive)	50.8 µM (inactive)	32 µM (inactive)	39.4 µM (inactive)	39.4 µM (inactive)	> 100 µM (inactive)	–	11.7 µM (inactive)	34 µM (inactive)	45.1 µM (inactive)	43.7 µM (inactive)	30.4	36.1 µM (inactive)	–
CCOC(=O)N/N=C(/N)Cc1ccccc1	> 100 µM (inactive)	> 100 µM (inactive)	> 100 µM (inactive)	> 100 µM (inactive)	> 100 µM (inactive)	> 100 µM (inactive)	> 100 µM (inactive)	> 100 µM (inactive)	> 100 µM (inactive)	> 100 µM (inactive)	> 100 µM (inactive)	> 100 µM (inactive)	–	> 100 µM (inactive)	> 100 µM (inactive)	> 100 µM (inactive)	> 100 µM (inactive)	> 100	> 100 µM (inactive)	> 100 µM (inactive)
CC(C)(O)/C=C/C(=O)[C@](C)(O)[C@H]1[C@H](O)C[C@@]2(C)[C@@H]3CC=C4[C@@H](C[C@H](O)C(=O)C4(C)C)[C@]3(C)C(=O)C[C@]12C [CUCURBITACIN D]	0.262 µM (active)	0.792 µM (active)	0.195 µM (active)	0.272 µM (active)	0.375 µM (active)	0.0895 µM (active)	0.104 µM (active)	0.118 µM (active)	0.076 µM (active)	0.287 µM (active)	0.249 µM (active)	0.198 µM (active)	–	0.0964 µM (active)	0.376 µM (active)	0.201 µM (active)	0.239 µM (active)	–	0.65 µM (active)	0.1 µM (active)
